Reference: ChEMBL document CHEMBL4616664, “Antineoplastic Agents. 607. Emetine Auristatins” (2020)
Counter-ions that a name gives are not always drawn.

How the values were obtained:
Type in all cases: functional
[1] = test system: BXPC-3; assay: Growth inhibition of human BxPC3 cells incubated for 48 hrs by sulforhodamine B assay; settings: BXPC-3, 48 h
[2] = test system: MCF7; assay: Growth inhibition of human MCF7 cells incubated for 48 hrs by sulforhodamine B assay; settings: MCF7, 48 h
[3] = test system: SF-268; assay: Growth inhibition of human SF268 cells incubated for 48 hrs by sulforhodamine B assay; settings: SF-268, 48 h
[4] = test system: NCI-H460; assay: Growth inhibition of human NCI-H460 cells incubated for 48 hrs by sulforhodamine B assay; settings: NCI-H460, 48 h
[5] = test system: KM-20L2; assay: Growth inhibition of human KM20L2 cells incubated for 48 hrs by sulforhodamine B assay; settings: KM-20L2, 48 h
[6] = test system: DU-145; assay: Growth inhibition of human DU145 cells incubated for 48 hrs by sulforhodamine B assay; settings: DU-145, 48 h
[7] = test system: Panel NCI-60 (60 carcinoma cell lines); assay: Growth inhibition of human NCI60 cells

Row | GI50 [1] | GI50 [2] | GI50 [4] | GI50 [6] | SMILES | GI50 [3] | GI50 [5] | GI50 [7]
1 | > 10 µg/mL | > 10 µg/mL | > 10 µg/mL | 10 µg/mL | CC[C@H]1CN2CCc3cc(OC)c(OC)cc3[C@@H]2C[C@@H]1C[C@@H]1c2cc(OC)c(OC)cc2CCN1C(=O)CCNC(=O)[C@H](C)[C@@H](OC)[C@@H]1CCCN1C(=O)OC(C)(C)C | > 10 µg/mL | > 10 µg/mL | –
2 | 2390 nM | 1600 nM | 5700 nM | 3420 nM | CC[C@H]1CN2CCc3cc(OC)c(OC)cc3[C@@H]2C[C@@H]1C[C@@H]1c2cc(OC)c(OC)cc2CCN1C(=O)[C@H](C)[C@@H](OC)[C@@H]1CCCN1 | 3650 nM | 3420 nM | –
3 | 1900 nM | 118 nM | 4530 nM | 181 nM | CC[C@H]1CN2CCc3cc(OC)c(OC)cc3[C@@H]2C[C@@H]1C[C@@H]1c2cc(OC)c(OC)cc2CCN1CCNC(=O)[C@H](C)[C@@H](OC)[C@@H]1CCCN1C(=O)C[C@@H](OC)[C@H]([C@@H](C)CC)N(C)C(=O)[C@@H](NC(=O)[C@H](C(C)C)N(C)C)C(C)C | 272 nM | 362 nM | –
4 | 3800 nM | 159 nM | 2830 nM | 97.2 nM | CC[C@H]1CN2CCc3cc(OC)c(OC)cc3[C@@H]2C[C@@H]1C[C@@H]1c2cc(OC)c(OC)cc2CCN1C(=O)CCNC(=O)[C@H](C)[C@@H](OC)[C@@H]1CCCN1C(=O)C[C@@H](OC)[C@H]([C@@H](C)CC)N(C)C(=O)[C@@H](NC(=O)[C@H](C(C)C)N(C)C)C(C)C | 186 nM | 194 nM | –
5 | 56 nM | 54.2 nM | – | 36.1 nM | CC[C@H]1CN2CCc3cc(OC)c(OC)cc3[C@@H]2C[C@@H]1C[C@H]1NCCc2cc(OC)c(OC)cc21 [EMETINE HYDROCHLORIDE] | – | 47 nM | –
6 | > 10 µg/mL | 10 µg/mL | > 10 µg/mL | > 10 µg/mL | CC[C@H]1CN2CCc3cc(OC)c(OC)cc3[C@@H]2C[C@@H]1C[C@@H]1c2cc(OC)c(OC)cc2CCN1C(=O)CCNC(=O)OC(C)(C)C | > 10 µg/mL | > 10 µg/mL | –
7 | – | – | – | – | CC[C@H]1CN2CCc3cc(OC)c(OC)cc3[C@@H]2C[C@@H]1C[C@H]1NCCc2cc(OC)c(OC)cc21 [EMETINE] | – | – | 27 nM

Row | SMILES | GI50 [1] | GI50 [2] | GI50 [4] | GI50 [6] | GI50 [3] | GI50 [5] | GI50 [7]
8 | CC[C@H]1CN2CCc3cc(OC)c(OC)cc3[C@@H]2C[C@@H]1C[C@@H]1c2cc(OC)c(OC)cc2CCN1C(=O)CCN.O=C(O)C(F)(F)F.O=C(O)C(F)(F)F | 10.3 µg/mL | > 10 µg/mL | > 10 µg/mL | 10.1 µg/mL | > 10 µg/mL | > 10 µg/mL | –
9 | CC[C@H]1CN2CCc3cc(OC)c(OC)cc3[C@@H]2C[C@@H]1C[C@@H]1c2cc(OC)c(OC)cc2CCN1C(=O)[C@H](C)[C@@H](OC)[C@@H]1CCCN1C(=O)C[C@@H](OC)[C@H]([C@@H](C)CC)N(C)C(=O)[C@@H](NC(=O)[C@H](C(C)C)N(C)C)C(C)C | 386 nM | 35.8 nM | 198 nM | 12.3 nM | 30.2 nM | 35.8 nM | –
